In patent US20110160306A1, “USE OF ALKANEDICARBOXYLIC ACIDS AND RETINOIDS FOR TREATMENT OF ROSACEA AND OTHER INFLAMMATORY SKIN DISEASES” (priority 2006, published 2011):

Tested on: irritative contact dermatitis induced on the ears of mice by croton oil
Test: Croton oil-induced irritative contact dermatitis on the mouse ear (ear weight, elastase and peroxidase in ear homogenate)
Format: in vivo
Details: for Edema formation Weight change in %: ear weight at 24 h, vs croton oil + vehicle; for Inhibition [%] of Skin infiltration of Granulocytes & Monocytes (Myelo-Peroxidase Activity) / Inhibition [%] of Skin infiltration of Neutrophils Elastase Activity: ear homogenate at 24 h
Excerpt: To do this, an inflammatory reaction, i.e., irritative contact dermatitis, is induced on the ears of mice by means of croton oil, and the test substance is applied. This test is explained in more detail below within the framework of the examples. The induction of an inflammatory reaction (irritative contact dermatitis) is a proven model for pharmacological evaluation of the anti-inflammatory potential of topically or systemically administered test substances ([…] and Lowe (1985) Evaluation of Topical Nonsteroidal Anti-Inflammatory Agents, Models in Dermatology, H. Maibach and N.J. Lowe. Basel, Karger: 35-42). Croton oil is applied to the ears of mice to carry out the study; this leads to an acute, inflammatory reaction with edema and infiltration of primarily polymorphonuclear granulocytes that reaches its peak within 24 hours. Test substance can be applied here either preventively, i.e., before application of the inflammatory stimulus, or simultaneously with croton oil. […] The vehicle alone acted as the vehicle control. […] The animals were sacrificed 24 hours after the eczema was triggered, and the ear weight was determined as a measure of inflammation and edema formation. In addition, the elastase and peroxidase parameters were determined from the ear homogenate. The number of animals was basically n=10/group. Elastase is a largely neutrophil-specific enzyme and thus a measure of the number of infiltrated neutrophilic granulocytes. […] Peroxidase is expressed by all granulocytes, in addition also by monocytes. It is used for measuring the infiltrated granulocytes and monocytes. Like neutrophils, granulocytes and monocytes/macrophages are also involved in inflammatory processes of the skin and can be repeatedly detected in the infiltrate of the aforementioned diseases.

[1] = azelaic acid 10%, listed as azelaic acid
[2] = azelaic acid 20%, listed as azelaic acid
[3] = tretinoin 0.05%, listed as tretinoin

## O=C(O)CCCCCCCC(=O)O [Azelaic acid, azelaic acid]
Azelaic acid 10% topical with 1% croton oil
  Edema formation Weight change in %: −6%
Azelaic acid 10% topical with 1% croton oil, listed as azelaic acid
  Edema formation Weight change in %: no significant reduction of the edema
Azelaic acid 10%
  Inhibition [%] of Skin infiltration of Granulocytes & Monocytes (Myelo-Peroxidase Activity): −34%
  Inhibition [%] of Skin infiltration of Neutrophils Elastase Activity: −12%
[1]
  Inhibition [%] of Skin infiltration of Granulocytes & Monocytes (Myelo-Peroxidase Activity): could already be influenced
  Inhibition [%] of Skin infiltration of Neutrophils Elastase Activity: cannot be significantly influenced
Azelaic acid 15% topical with 1% croton oil
  Edema formation Weight change in %: 1%
Azelaic acid 15% topical with 1% croton oil, listed as azelaic acid
  Edema formation Weight change in %: even an increase
Azelaic acid 15%
  Inhibition [%] of Skin infiltration of Granulocytes & Monocytes (Myelo-Peroxidase Activity): −16%
  Inhibition [%] of Skin infiltration of Neutrophils Elastase Activity: −6%
Azelaic acid 15%, listed as azelaic acid
  Inhibition [%] of Skin infiltration of Neutrophils Elastase Activity: cannot be significantly influenced
Azelaic acid 20% topical with 1% croton oil
  Edema formation Weight change in %: −16%
Azelaic acid 20% topical with 1% croton oil, listed as azelaic acid
  Edema formation Weight change in %: no significant reduction of the edema
Azelaic acid 20%
  Inhibition [%] of Skin infiltration of Granulocytes & Monocytes (Myelo-Peroxidase Activity): −40%
  Inhibition [%] of Skin infiltration of Neutrophils Elastase Activity: −48%
[2]
  Inhibition [%] of Skin infiltration of Granulocytes & Monocytes (Myelo-Peroxidase Activity): could already be influenced
  Inhibition [%] of Skin infiltration of Neutrophils Elastase Activity: reduced

## CC1=C(/C=C/C(C)=C/C=C/C(C)=C/C(=O)O)C(C)(C)CCC1 [Tretinoin, tretinoin]
Tretinoin 0.05% topical with 1% croton oil
  Edema formation Weight change in %: −4%
Tretinoin 0.05% topical with 1% croton oil, listed as tretinoin
  Edema formation Weight change in %: does not lead to any significant reduction of edema
Tretinoin 0.05%
  Inhibition [%] of Skin infiltration of Granulocytes & Monocytes (Myelo-Peroxidase Activity): −3%
  Inhibition [%] of Skin infiltration of Neutrophils Elastase Activity: 2%
[3]
  Inhibition [%] of Skin infiltration of Granulocytes & Monocytes (Myelo-Peroxidase Activity): did not lead to a significant decrease of peroxidase concentration
  Inhibition [%] of Skin infiltration of Neutrophils Elastase Activity: did not lead to a decrease of the elastase concentration
